Peptide text beside a SMILES is read from it. * marks the point of attachment. Cbz = O=C(OCc1ccccc1)*
Assays:
granulocytes = test: IκB degradation agonists in whole blood: IκB degradation and signaling pathway activation in granulocytes; assay type: cell-based, human
Method: (§1) Whole blood samples from normal human donors were collected. 100 μL aliquots of the whole blood were inserted into the bottom of 12×75 mm tubes. In order to reduce the potential for contamination of the sample with unfixed cells, blood was removed from the side of the tubes with a cotton swab. 1-2 μL of a proteasome effector was added to a first portion of the tubes and these tubes were incubated for 2 hours at 37° C. in a water bath. In this example, the proteasome effector was Bortezomib or MG-132, both proteasome inhibitors. Following pretreatment with the proteasome effector, 2 μL of […] stock solution (100 ng) of an IκB degradation agonist was added to the tubes and the tubes were incubated from 1 minute to 60 minutes at 37° C. in a water bath. In this example, the agonist was lipopolysaccharide (LPS). A second portion of the tubes were treated with the IκB degradation agonist and no proteasome effector. 2 μL of an IκB degradation agonist was added to these tubes and the tubes were incubated from 1 minute to 60 minutes as described above. For control tubes, 2 μL of phosphate buffered saline (PBS) was added to the tubes and the tubes were incubated as described above.
(§2) Following incubation, the cells were fixed and permeabilized with a PerFix-P® kit (Beckman Coulter, Inc., Brea. Calif.) according to the manufacturer's instructions. The fixed and permeabilized cells were then washed with 2 mL of Wash Buffer (PBS (w/o Ca++/Mg++) with 2% fetal bovine serum (FBS), sterile filtered (0.22 μm filter)) in the tubes and centrifuged at 500×g for 4 minutes. The cell pellet was resuspended in 2 mL of cold (4° C.) Wash Buffer, centrifuged at 500×g for 4 minutes, and the supernatant was aspirated.
Following the above wash steps, the fixed and permeabilized cells were resuspended in 100 μL of cold Wash Buffer comprising antibodies to specific intracellular antigens (e.g., signaling targets including P-ERK, P-Akt, P-p38, P-SAPK, P-S6, and antibodies to IκB). The antibodies were labeled with different fluorochromes (e.g. fluorophores) to facilitate their-individual measurement of the intracellular antigens. […] The supernatant was aspirated and the cell pellet was resuspended in 350 μL of Resuspension Buffer (PerFix-P® kit) and analyzed on a flow cytometer (GALLIOS™) using a protocol with defined population gates and series of dual parameter histograms. A CD45-KO vs. SS dual parameter histogram was collected and a gate around the leukocyte population based on the CD45+ fluorescence and SS characteristics was drawn to exclude debris (CD45 negative events). […] The collected flow cytometric data was analyzed using KALUZA™ software.

[1] = system: peripheral blood monocytes; test: IκB degradation agonists in whole blood: IκB degradation and signaling pathway activation in monocytes; assay type: cell-based, human; conditions: for Pathways Activated: Target Cell Population: Monocytes
Method: as §1, §2
(§3) Following the above wash steps, the fixed and permeabilized cells were resuspended in 100 μL of cold Wash Buffer comprising antibodies to specific intracellular antigens (e.g., signaling targets including P-ERK, P-Akt, P-p38, P-SAPK, P-S6, and antibodies to IκB). The antibodies were labeled with different fluorochromes (e.g. fluorophores) to facilitate their-individual measurement of the intracellular antigens. In order to target specific cell populations in the assay, antibodies capable of differentiating cell populations within the blood sample were also included in some of the tubes. For example, anti-CD14 antibodies were included to specifically label monocytes, anti-CD3 antibodies or anti-CD19 antibodies were included to specifically label T or B-cells respectively, and/or anti-CD38/CD138 antibodies were included to specifically label plasma cells. The cells were incubated with the antibodies for 30 minutes at room temperature and then the cells were washed in 2 mL of cold Wash Buffer and centrifuged as described above. The supernatant was aspirated and the cell pellet was resuspended in 350 μL of Resuspension Buffer (PerFix-P® kit) and analyzed on a flow cytometer (GALLIOS™) using a protocol with defined population gates and series of dual parameter histograms. A CD45-KO vs. SS dual parameter histogram was collected and a gate around the leukocyte population based on the CD45+ fluorescence and SS characteristics was drawn to exclude debris (CD45 negative events). A minimum of 2,500 CD14+ events were collected. A stop count region was set from the CD14-PC7 vs. SS histogram gated on monocytes. Dual parameter histograms gated on the appropriate populations were created to measure the populations of interest. The collected flow cytometric data was analyzed using KALUZA™ software.
(§4) Phosphorylation of signaling pathways activated by TNF-α, including ERK, Akt, and the ribosomal S6 protein, was monitored together with the degradation of IκB in peripheral blood WBCs. Whole blood samples were treated, activated, and processed as described in Example 1 and the degradation of IκB in peripheral blood cells was monitored by flow cytometry as described in Example 1. The IκB degradation agonist used in this example was TNF-α. […]

[2] = system: peripheral blood lymphocytes; test: IκB degradation agonists in whole blood: IκB degradation and signaling pathway activation in lymphocytes; assay type: cell-based, human; conditions: for Pathways Activated: Target Cell Population: Lymphocytes (subpopulation)
Method: as §1, §2, §3, §4

monocytes of MM patients = test: LPS stimulation of monocytes in whole blood of Multiple Myeloma patients; assay type: cell-based, human; conditions: 10 min LPS
Method: (§5) Whole blood samples from eight Multiple Myeloma (MM) patients were obtained. For three of the MM patients (MM003-MM005), whole blood samples were tested with or without LPS activation (10 min stimulation at 37° C.) and the samples were processed and analyzed for IκB degradation and signaling pathway activation as described in Example 1.
(§6) Blood samples from the 5 remaining MM patients samples were pretreated with Bortezomib or RP-171 (Carfilzomib, a covalent proteasome inhibitor) and then tested and analyzed with or without LPS activation (10 min LPS at 37 37° C.) for IκB degradation and signaling pathway activation as described in Example 1. […] All of the MM patients tested were receiving Bortezomib therapy.

IκB in granulocytes = test: Flow cytometry assay, whole blood pretreated with effector: IκB levels in granulocytes after LPS; assay type: cell-based, human; conditions: whole blood pretreated with inhibitor, then LPS; 60 minutes time period
Method: (§7) The assay generally comprises treating whole blood with an IκB degradation agonist and/or proteasome effector, fixing the blood cells, permeabilizing the fixed bloods cells, treating the fixed and permeabilized cells with an alcohol treatment to unmask intracellular phosphor-epitopes, and then staining the treated cells with antibodies for flow cytometry analysis.
(§8) Whole blood samples from normal human donors were collected. 100 μL aliquots of the whole blood were inserted into the bottom of 12×75 mm tubes. In order to reduce the potential for contamination of the sample with unfixed cells, blood was removed from the side of the tubes with a cotton swab. […]
(§9) Following the above wash steps, the fixed and permeabilized cells were resuspended in 100 μL of cold Wash Buffer comprising antibodies to specific intracellular antigens (e.g., signaling targets including P-ERK, P-Akt, P-p38, P-SAPK, P-S6, and antibodies to IκB). […] The supernatant was aspirated and the cell pellet was resuspended in 350 μL of Resuspension Buffer (PerFix-P® kit) and analyzed on a flow cytometer (GALLIOS™) using a protocol with defined population gates and series of dual parameter histograms. A CD45-KO vs. SS dual parameter histogram was collected and a gate around the leukocyte population based on the CD45+ fluorescence and SS characteristics was drawn to exclude debris (CD45 negative events). […]

[3] = system: IκB in peripheral blood lymphocytes; test: Flow cytometry assay, whole blood pretreated with effector: LPS induced degradation of IκB in lymphocytes; assay type: cell-based, human; conditions: whole blood pretreated with inhibitor, then LPS
Method: as §7, §8, §9

[4] = system: P-Akt (P-Ser473) in peripheral blood monocytes; test: Akt phosphorylation in LPS activated monocytes from pretreated whole blood; assay type: cell-based, human
Method: (§10) Whole blood samples from normal human donors were collected. 100 μL aliquots of the whole blood were inserted into the bottom of 12×75 mm tubes. In order to reduce the potential for contamination of the sample with unfixed cells, blood was removed from the side of the tubes with a cotton swab. 1-2 μL of a proteasome effector was added to a first portion of the tubes and these tubes were incubated for 2 hours at 37° C. in a water bath. In this example, the proteasome effector was Bortezomib or MG-132, both proteasome inhibitors. […]
(§11) Following the above wash steps, the fixed and permeabilized cells were resuspended in 100 μL of cold Wash Buffer comprising antibodies to specific intracellular antigens (e.g., signaling targets including P-ERK, P-Akt, P-p38, P-SAPK, P-S6, and antibodies to IκB). […] The supernatant was aspirated and the cell pellet was resuspended in 350 μL of Resuspension Buffer (PerFix-P® kit) and analyzed on a flow cytometer (GALLIOS™) using a protocol with defined population gates and series of dual parameter histograms. A CD45-KO vs. SS dual parameter histogram was collected and a gate around the leukocyte population based on the CD45+ fluorescence and SS characteristics was drawn to exclude debris (CD45 negative events). […] The collected flow cytometric data was analyzed using KALUZA™ software. […]

[5] = system: IκB in peripheral blood monocytes; test: Flow cytometry assay, whole blood pretreated with effector: LPS induced degradation of IκB in monocytes; assay type: cell-based, human; conditions: then LPS; for effect on LPS induced degradation of IκB in monocytes: whole blood pretreated with compound
Method: as §1, with “2 μL of an IκB degradation agonist was added to these tubes and the tubes were incubated from 1 minute to 60 minutes as described above. For control tubes, 2 μL of phosphate buffered saline (PBS) was added to the tubes and the tubes were incubated as described above.” left out
Following the above wash steps, the fixed and permeabilized cells were resuspended in 100 μL of cold Wash Buffer comprising antibodies to specific intracellular antigens (e.g., signaling targets including P-ERK, P-Akt, P-p38, P-SAPK, P-S6, and antibodies to IκB). […] The supernatant was aspirated and the cell pellet was resuspended in 350 μL of Resuspension Buffer (PerFix-P® kit) and analyzed on a flow cytometer (GALLIOS™) using a protocol with defined population gates and series of dual parameter histograms. A CD45-KO vs. SS dual parameter histogram was collected and a gate around the leukocyte population based on the CD45+ fluorescence and SS characteristics was drawn to exclude debris (CD45 negative events). […] The collected flow cytometric data was analyzed using KALUZA™ software.
(§12) Phosphorylation of signaling pathways activated by LPS, including ERK, Akt (activated by PI3 Kinase), and the ribosomal S6 protein (a marker of protein synthesis) were also monitored together with the degradation of IκB. […] The degradation of IκB in cells pretreated with MG-132 or GDC-0941 was monitored by flow cytometry as described in Example 1. […]

[6] = system: P-ERK (P-Thr202/P-Tyr204) in peripheral blood monocytes; test: ERK phosphorylation in LPS activated monocytes from pretreated whole blood; assay type: cell-based, human; conditions: LPS activated monocytes; for "early" (first) ERK phosphorylation peak: 2-4 minutes; for "late" (second) ERK activation peak: about 10 minutes
Method: as §1, §2
as §3, with “In order to target specific cell populations in the assay, antibodies capable of differentiating cell populations within the blood sample were also included in some of the tubes.” left out, “A stop count region was set from the CD14-PC7 vs. SS histogram gated on monocytes. Dual parameter histograms gated on the appropriate populations were created to measure the populations of interest.” left out
as §12

[7] = system: P-S6 (P-Ser235/P-Ser236) in peripheral blood monocytes; test: S6 phosphorylation in LPS activated monocytes from pretreated whole blood; assay type: cell-based, human
Method: as §10, §11

[8] = system: proteasome activity (IκB degradation, ERK activation) in monocytes; test: Proteasome inhibition in blood monocytes of Multiple Myeloma patients receiving Bortezomib therapy (LPS stimulation ex vivo); parameters: species or system human
Method: as §5, §6

[9] = system: IκB in peripheral blood monocytes; test: TNFα induced degradation of IκB in monocytes from pretreated whole blood; assay type: cell-based, human; conditions: TNFα activated monocytes, whole blood pretreated with inhibitor
Method: as §10, §11

[10] = system: P-ERK in peripheral blood monocytes; test: TNFα induced ERK activation in monocytes from pretreated whole blood; assay type: cell-based, human; conditions: TNFα activated monocytes, whole blood pretreated with inhibitor
Method: as §10, §11

[11] = three MM patients (MM003-MM005), 10 min LPS at 37° C.

lipopolysaccharide [LPS]
Pathways Activated (granulocytes; Target Cell Population: Granulocytes): P-p38 MAP kinase
degradation of IκB in granulocytes (granulocytes; agonist alone): No significant degradation
Pathways Activated ([1]; pathway: IκB > NFκB): IκB > NFκB
Pathways Activated ([1]; pathway: P-p 38 MAP kinase): P-p 38 MAP kinase
Pathways Activated ([1]; pathway: PI3 kinase > Akt): PI3 kinase > Akt
Pathways Activated ([1]; pathway: SAP/JNK MAP kinase): SAP/JNK MAP kinase
Pathways Activated ([1]; pathway: Tpl-2 > ERK/MAP kinase): Tpl-2 > ERK/MAP kinase
loss in measured IκB ([1]; agonist alone, normal donors, monocytes, within 10 minutes of treatment): 60-70%
Pathways Activated ([2]; pathway: ERK MAP kinase (Tpl-2)): ERK MAP kinase (Tpl-2)
Pathways Activated ([2]; pathway: IκB > NFκB): IκB > NFκB
Pathways Activated ([2]; pathway: PI3 kinase > Akt): PI3 kinase > Akt
degradation of IκB in lymphocytes at 10 min ([2]; agonist alone, 10 min): no significant degradation
loss of IκB (monocytes of MM patients; six MM samples): 60-70%
percent decrease of IκB MFI (monocytes of MM patients; two MM samples): 48%

CC(C)C[C@@H](C=O)NC(=O)[C@H](CC(C)C)NC(=O)[C@H](CC(C)C)NC(=O)OCc1ccccc1 [MG-132] (Cbz-Leu-Leu-Leu-aldehyde)
degradation of IκB in granulocytes (IκB in granulocytes): No significant degradation
LPS induced degradation of IκB in lymphocytes [3]: No significant degradation
Akt activation [4]: no effect
effect on LPS induced degradation of IκB in monocytes [5]: inhibited degradation of IκB
"early" (first) ERK phosphorylation peak [6]: not the first
"late" (second) ERK activation peak [6]: inhibited
MFI of the S6 phosphorylation response, lower than in the sample treated with only LPS [7]: approximately 50%

CC(C)C[C@H](NC(=O)[C@H](Cc1ccccc1)NC(=O)c1cnccn1)B(O)O [Bortezomib]
degradation of IκB in granulocytes (IκB in granulocytes): No significant degradation
proteasome inhibition ([8]; all MM patients tested, blood draw a week after the treatment): no proteasome inhibition was detected
inhibition of ERK activation following LPS stimulation [8, 11]: no inhibition
inhibition of IκB degradation following LPS stimulation [8, 11]: no inhibition
LPS induced degradation of IκB in lymphocytes [3]: inhibition of LPS induced degradation of IκB
loss in measured IκB ([5]; monocytes, whole blood pretreated with inhibitor 2 hours at 37° C., within 10 minutes): ~10%
degradation of IκB [9]: completely inhibited
activation of ERK [10]: completely inhibited

CS(=O)(=O)N1CCN(Cc2cc3nc(-c4cccc5[nH]ncc45)nc(N4CCOCC4)c3s2)CC1 [GDC-0941]
Akt activation [4]: inhibited
effect on LPS induced degradation of IκB in monocytes [5]: no effect
"early" (first) ERK phosphorylation peak [6]: inhibited
"late" (second) ERK activation peak [6]: unchanged
activation of ribosomal S6 protein [7]: minimal impact
